One data set concerns NCI-H460. Kind of data set: Antiproliferative activity against human NCI-H460 cells assessed as cell growth inhibition after 48 hrs by sulforhodamine B assay. It counts as functional. Background: In SRB staining, fixed cells bind dye roughly in proportion to their protein.
In a further data set the test system is LOX IMVI. In words: Antiproliferative activity against human LOX IMVI cells assessed as cell growth inhibition after 48 hrs by sulforhodamine B assay. The format is functional.
The next data set concerns SF-295. Kind of data set: Antiproliferative activity against human SF-295 cells assessed as cell growth inhibition after 48 hrs by sulforhodamine B assay. It counts as functional.
For data set [1], the target named is Protein kinase C delta type (Mus musculus, UniProt P28867). In words: Displacement of [3H]-PDBu from PKCdelta C1B domain in CD-1 mouse brain cytosol. It counts as subcellular.
In data set [2] the target is Protein kinase C alpha type (Mus musculus, UniProt P20444). Kind of data set: Displacement of [3H]-PDBu from PKCalpha C1A domain in CD-1 mouse brain cytosol. It counts as subcellular. (Loss of bound radioactivity is the signal in a displacement assay; it reports binding, not function.)
For another data set, the system named is HCC 2998. In words: Antiproliferative activity against human HCC 2998 cells assessed as cell growth inhibition after 48 hrs by sulforhodamine B assay. The format is functional.
A short description of data set [3]: Antiproliferative activity against human HBC-4 cells assessed as cell growth inhibition after 48 hrs by sulforhodamine B assay. The note with it: HBC4. It counts as functional.
The subject of another data set is MDA-MB-231. Kind of data set: Antiproliferative activity against human MDA-MB-231 cells assessed as cell growth inhibition after 48 hrs by sulforhodamine B assay. It counts as functional.
For the next data set, the system named is A549. Kind of data set: Antiproliferative activity against human A549 cells assessed as cell growth inhibition after 48 hrs by sulforhodamine B assay. The format is functional.
A further data set concerns St-4. In words: Antiproliferative activity against human St-4 cells assessed as cell growth inhibition after 48 hrs by sulforhodamine B assay. The format is functional.
The next data set relates to MKN-45. In words: Antiproliferative activity against human MKN-45 cells assessed as cell growth inhibition after 48 hrs by sulforhodamine B assay. The format is functional.
The next data set has as its system Ear. In words: Proinflammatory activity in ICR mouse assessed as increase in relative weight of each ear at 17 nmol measured after 24 hrs. The format is functional, tissue-based.
Data set [4] is described as follows: Induction of inflammation in ICR mouse assessed as increase in relative weight of each ear at 170 nmol measured after 24 hrs. The format is tissue-based.

Molecules are shown by their SMILES. Calls of active or inactive are those of the source. The rule behind the calls is not given here.

Chain of Protein kinase C delta type (P28867 whole entry, the tested form may be a part): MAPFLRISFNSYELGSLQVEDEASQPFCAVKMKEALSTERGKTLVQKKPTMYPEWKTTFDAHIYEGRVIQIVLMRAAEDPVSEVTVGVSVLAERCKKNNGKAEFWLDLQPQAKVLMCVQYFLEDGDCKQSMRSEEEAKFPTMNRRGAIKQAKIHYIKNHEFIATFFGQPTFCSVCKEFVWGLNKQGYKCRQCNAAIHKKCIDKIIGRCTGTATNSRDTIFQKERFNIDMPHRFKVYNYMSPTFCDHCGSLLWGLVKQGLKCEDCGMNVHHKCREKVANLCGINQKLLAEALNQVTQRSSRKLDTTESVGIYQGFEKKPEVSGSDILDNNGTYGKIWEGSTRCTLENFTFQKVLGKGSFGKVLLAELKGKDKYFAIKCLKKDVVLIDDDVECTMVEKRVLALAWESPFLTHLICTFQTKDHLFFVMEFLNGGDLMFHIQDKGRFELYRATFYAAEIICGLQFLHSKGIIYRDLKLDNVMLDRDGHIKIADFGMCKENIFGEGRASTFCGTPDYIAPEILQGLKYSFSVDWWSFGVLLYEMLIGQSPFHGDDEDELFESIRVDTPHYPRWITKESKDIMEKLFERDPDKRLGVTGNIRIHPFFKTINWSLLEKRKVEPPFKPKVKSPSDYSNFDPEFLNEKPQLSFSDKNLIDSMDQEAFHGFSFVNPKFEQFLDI

Usually GI50 stands for the concentration giving 50% growth inhibition. In general, Ki refers to a dissociation constant, usually derived from enzyme kinetics or from competition with a known ligand. High values mean weaker binding, low ones tighter binding. As for `C[C@H]1[C@@H]2C[C@@]3(O[C@H](CCC3(C)C)CC(=O)O[C@@H](CO)CC(=O)O2)O[C@@H]1CCCCc1cccc2cc(OCc3ccccc3)ccc12`, the GI50 is 115 nM in the data set with NCI-H460; 182 nM with LOX IMVI; 871 nM in the data set with SF-295; 398 nM in the data set with HCC 2998; 63.1 nM in data set [3]; 537 nM in the data set on MDA-MB-231. The 50% growth inhibitory concentration (GI50) in the data set on A549 is 692 nM; with St-4, 52.5 nM; in the data set on MKN-45, 195 nM. For the same compound, the Ki in [1] was determined as 0.74 nM; in [2] it was 7.6 nM. Further, the outcome with Ear was Active.

Take `C[C@H]1[C@@H]2C[C@@]3(O[C@H](CCC3(C)C)CC(=O)O[C@@H](CO)CC(=O)O2)O[C@@H]1CCCCc1cccc2cc(O)ccc12`: the GI50 was 162 nM in the data set with NCI-H460; 447 nM in the data set with LOX IMVI; 955 nM with SF-295; 501 nM in the data set on HCC 2998; 91.2 nM in data set [3]; 891 nM in the data set with MDA-MB-231. The GI50 in the data set with A549 is 759 nM; in the data set on St-4 it was 240 nM; with MKN-45 it was 479 nM. Also, in data set [4], the Activity entry is reported as “Toxic”. Moreover, the values for the Ki in [1] and in [2] were 0.98 nM and 6.4 nM, respectively.

Turning to `C[C@H]1[C@@H]2C[C@@]3(O[C@H](CCC3(C)C)CC(=O)O[C@@H](CO)CC(=O)O2)O[C@@H]1CCCCc1cccc(O)c1`, in data set [4], the Activity entry was “Toxic”.
